Source: patent US6653081B2, “Methods for monitoring antiretroviral therapy and guiding therapeutic decision in the treatment of HIV/AIDS” (ViroLogic, Inc., priority 2000, dated 2003)

Experiments:
RTV-010829/245V = assay: Phenotypic susceptibility assay, RTV-010829/245V; assay type: cell-based, HIV; conditions: RTV-010829 with V245E reverted
Description: (§1) The resistance test vectors containing a functional luciferase gene cassette were constructed and host cells were transfected with the resistance test vector DNA. The resistant test vectors contained patient-derived reverse transcriptase and protease sequences that were either susceptible or resistant to the antiretroviral agents, such as nucleoside reverse transcriptase inhibitors, (NRTIs) non-nucleoside reverse transcriptase inhibitors […] protease inhibitors. The resistance test vector viral particles produced by transfecting the resistance test vector DNA into host cells, either in the presence or absence of PRIs, were used to infect target host cells grown either in the absence of NRTIs or NNRTIs, or in the presence of increasing concentrations of the drug. The amount of luciferase activity produced in infected target host cells in the presence of varying concentrations of drug was compared to the amount of luciferase produced in infected target host cells in the absence of drug. “Drug resistance” was measured as the amount of drug required to inhibit by 50% the luciferase activity detected in the absence of drug (inhibitory concentration 50%, IC50). The IC50 values were determined by plotting percent drug inhibition vs. log10 drug concentration. Stimulation of viral replication was measured as the percent increase in luciferase activity detected when infection occurs in the presence of drug as compared to in the absence of drug.
(§2) Host cells were seeded in 10-cm-diameter dishes and were transfected several days after plating with resistance test vector plasmid DNA and the envelope expression vector. Transfections were performed using a calcium-phosphate precipitation procedure. The cell culture media containing the DNA precipitate was replaced with fresh medium, from one to 24 hours, after transfection. Cell culture media containing resistance test vector viral particles was harvested one to four days after transfection and was passed through a […] filter before being used to infect target host cells, or being stored at −80° C. HIV capsid protein (p24) levels in the harvested cell culture media were determined by an EIA method as described by the manufacturer (SAIC; Frederick, Md.). Before infection, target cells (293 and 293/T) were plated in cell culture media. Control infections were performed using cell culture media from mock transfections (no DNA) or transfections containing the resistance test vector plasmid DNA without the envelope expression plasmid. One to three or more days after infection, the media was removed and cell lysis buffer (Promega) was added to each well. Cell lysates were assayed for luciferase activity (FIG. 3). The inhibitory effect of the drug was determined using the following equation:
(§3) % luciferase inhibition=1−(RLUluc[drug]÷RLUluc)×100
(§4) where RLUluc [drug] is the Relative Light Unit of luciferase activity in infected cells in the presence of drug, and RLUluc is the Relative Light Unit of luciferase activity in infected cells in the absence of drug. IC50values were obtained from the sigmoidal curves that were generated from the data by plotting the percent inhibition of luciferase activity vs. the log10 drug concentration. The percent luciferase stimulation is the negative of the % inhibition calculated using the formula above.
A resistance test vector containing all of the mutations present in RTV-010829 except for the V245E mutation (RTV-010829/245V) was constructed and tested using the phenotypic assay described earlier. The results were compared to those determined using the parent RTV-010829. We determined the pattern of phenotypic susceptibility to the NNRTIs, delavirdine, nevirapine and efavirenz, in the reverted vector RTV-010829/245V. […] A resistance test vector containing all of the mutations present in RTV-010829 except for the I270M (RTV-010829/270I) was constructed and tested using the phenotypic assay described earlier. […]

RTV-007130 = assay: Phenotypic susceptibility assay, RTV-007130; assay type: cell-based, HIV; conditions: patient 007130; for decrease in susceptibility: 245 with multiple other mutations
Description: as §1, §2, §3, §4
A resistance test vector was constructed as described in Example 1 from a virus sample obtained from patient 007130. The prior and current treatment regimens are unknown. Isolation of viral RNA and RT/PCR was used to generate a patient derived segment (PDS) that comprised viral sequences coding for all of PR and aa 1-313 of RT. The PDS were inserted into an indicator gene viral vector to generate a resistance test vector designated RTV-007130. RTV-007130 was then tested in a phenotypic assay to determine accurately and quantitatively the level of susceptibility to a panel of anti-retroviral drugs. […]

RTV-K103N = assay: Phenotypic susceptibility assay, RTV-K103N; assay type: cell-based, HIV-1; conditions: site-directed K103N alone
Description: as §1, §2, §3, §4
A resistance test vector containing a single mutation, K103N, (RTV-K103N) was constructed and tested in the phenotypic assay described earlier. The results were compared to those determined using a genetically defined resistance test vector that was wild type at positions 103. We determined the pattern of phenotypic susceptibility to the NNRTIs, delavirdine, nevirapine and efavirenz, in RTV-K103N.

RTV-014451 = assay: Phenotypic susceptibility assay, RTV-014451; assay type: cell-based, HIV; conditions: patient 014451, week 32; for decrease in susceptibility: K101E, V106M, G190A on 241 backbone
Description: as §1, §2, §3, §4
Resistance test vectors were constructed as described in Example 1 from virus samples obtained from an individual patient at two separate time points separated by a 32-week period. The prior and current treatment regimens are unknown. Isolation of viral RNA and RT/PCR was used to generate patient derived segments (PDS) that comprised viral sequences coding for all of PR and aa […] of RT from […]. The PDS were inserted into an indicator gene viral vector to generate resistance test vectors designated RTV-014459 and RTV-014451. […]

RTV-1046 and RTV-887 = assay: Phenotypic susceptibility assay, RTV-1046 and RTV-887; assay type: cell-based, HIV; conditions: patient ARG-014, weeks 8 and 16; Y181C and M230L present
Description: (§5) The resistance test vectors containing a functional luciferase gene cassette were constructed and host cells were transfected with the resistance test vector DNA. The resistant test vectors contained patient-derived reverse transcriptase and protease sequences that were either susceptible or resistant to the antiretroviral agents, such as nucleoside reverse transcriptase inhibitors, (NRTIs) non-nucleoside reverse transcriptase inhibitors […] protease inhibitors. The resistance test vector viral particles produced by transfecting the resistance test vector DNA into host cells, either in the presence or absence of PRIs, were used to infect target host cells grown either in the absence of NRTIs or NNRTIs, or in the presence of increasing concentrations of the drug. The amount of luciferase activity produced in infected target host cells in the presence of varying concentrations of drug was compared to the amount of luciferase produced in infected target host cells in the absence of drug. […] The IC50 values were determined by plotting percent drug inhibition vs. log10 drug concentration. Stimulation of viral replication was measured as the percent increase in luciferase activity detected when infection occurs in the presence of drug as compared to in the absence of drug.
(§6) Host cells were seeded in 10-cm-diameter dishes and were transfected several days after plating with resistance test vector plasmid DNA and the envelope expression vector. […] HIV capsid protein (p24) levels in the harvested cell culture media were determined by an EIA method as described by the manufacturer (SAIC; Frederick, Md.). […] The inhibitory effect of the drug was determined using the following equation: […]
(§7) where RLUluc [drug] is the Relative Light Unit of luciferase activity in infected cells in the presence of drug, and RLUluc is the Relative Light Unit of luciferase activity in infected cells in the absence of drug. […] The percent luciferase stimulation is the negative of the % inhibition calculated using the formula above. […]

RTV-011073/241V/277T = assay: Phenotypic susceptibility assay, RTV-011073/241V/277T; assay type: cell-based, HIV; conditions: RTV-011073 with 241 and 277 reverted
Description: as §5, §6, §7

RTV-011073/241V = assay: Phenotypic susceptibility assay, RTV-011073/241V; assay type: cell-based, HIV; conditions: RTV-011073 with V241S reverted
Description: as §1, §2, §3, §4
A resistance test vector containing all of the mutations present in RTV-011073 except for the V241S and the T277K was constructed and tested using the phenotypic assay described earlier. The results were compared to those determined using the parent RTV-011073. We determined the pattern of phenotypic susceptibility to the NNRTIs, delavirdine, nevirapine and efavirenz, in the reverted vector RTV-011073/241V/277T. […] A resistance test vector containing all of the mutations present in RTV-011073 except for the V241S was constructed and tested using the phenotypic assay described earlier. The results were compared to those determined using the parent RTV-011073. […]

| SMILES | drug-dependent stimulation of viral replication (RTV-010829/245V) [%] | reductions in susceptibility compared to wild type control RTV (RTV-010829/245V) [fold] | drug-dependent stimulation of viral replication (RTV-007130) [%] | decrease in susceptibility (RTV-007130) [fold] | drug-dependent stimulation of viral replication (RTV-K103N) | reductions in susceptibility compared to wild type control RTV (RTV-K103N) [fold] | drug-dependent stimulation of viral replication (RTV-014451) [%] | decrease in susceptibility (RTV-014451) [fold] | decrease in susceptibility (RTV-1046 and RTV-887) [fold] | reductions in susceptibility compared to wild type control RTV (RTV-011073/241V/277T) [fold] | drug-dependent stimulation of viral replication (RTV-011073/241V) | reductions in susceptibility compared to wild type control RTV (RTV-011073/241V) [fold] |
| --- | --- | --- | --- | --- | --- | --- | --- | --- | --- | --- | --- | --- |
| CC(C)Nc1cccnc1N1CCN(C(=O)c2cc3cc(NS(C)(=O)=O)ccc3[nH]2)CC1 [delavirdine] | ~60 | 182 | ~30 | > 250 | no drug-dependent stimulation | 87 | ~90 | 41 | > 250 | 50 | no longer negative inhibition | 59 |
| O=C1Nc2ccc(Cl)cc2[C@@](C#CC2CC2)(C(F)(F)F)O1 [efavirenz] | ~60 | 189 | ~40 | > 450 | no drug-dependent stimulation | 29 | ~70 | > 450 | 5 | 54 | no longer negative inhibition | 54 |
| Cc1ccnc2c1NC(=O)c1cccnc1N2C1CC1 [nevirapine] | ~80 | 505 | ~50 | > 600 | no drug-dependent stimulation | 67 | ~100 | > 600 | > 600 | 126 | no longer negative inhibition | 146 |
